According to patent US11155551B2, “Nicotinic acetylcholine receptor silent agonists” (University of Florida Research Foundation, Inc., priority 2015, dated 2021):

Legend:
[1] = biological target: T1, human α7 nAChR (Homo sapiens, UniProt P36544); experiment: Two-electrode voltage clamping of human α7 nAChR expressed in Xenopus oocytes (net-charge / peak current relative to 60 μM ACh); type: cell-based; settings: for Potentiated response: 30 μM test compound + 10 μM PNU-120596 co-application; for Potentiated response / Relative response: relative to 60 μM ACh control, mean ± SEM, N ≥ 4; for Relative response: net-charge response to 30 μM test compound alone; for functional classification at α7 nAChR: 30 μM alone and with 10 μM PNU-120596, partial agonist = net charge > 1/10th ACh control
T1 construct: expressed in transfected cells; host or cells: Xenopus oocytes
Method: Electrophysiology: The panel of compounds synthesized was assayed using human α7 nAChR expressed in Xenopus oocytes and two-electrode voltage clamping. The partial agonism activity was evaluated, quantified as net-charge for 30 μM applications of compounds, measured relative to the control response to applications of 60 μM ACh. The induction of PAM-sensitive desensitization was detected as the net-charge responses when compounds were co-applied with the PAM PNU-120596 (30 μM compound+10 μM PNU-120596), measured relative to responses to 60 μM ACh applied alone. […] It is a unique property of α7 orthosteric agonist-induced currents that they vary systematically in the relationship between peak current and net charge as a function of the effective concentration applied (Papke & Papke (2002) Br. J. Pharm. 137: 49-61; Papke & Thinschmidt (1998) Neurosci. Let. 256: 163-166). This was due to the concentration-dependent desensitization of the receptors, which is likely to be associated with high levels of agonist binding site occupancy (Williams et al., (2011) J. Gen. Physiol. 137: 369-384) and is observed even when agonists are rapidly applied to small cells (Williams et al., (2012) Mol. Pharmacol. 82: 746-759) or acutely dissociated neurons (Uteshev et al., (2002) Brain Res. 948: 33-46). The control ACh concentration used for these experiments is roughly the EC80 for the net-charge responses.
By normalizing both the peak currents and net-charge measurements of the drug responses at the probe concentration of 30 μM (FIG. 3B) to those of the ACh control, the relationship between the probe concentration and the EC for each of the drugs was estimated (Papke, R. L. (2005) Life Sci.). At a concentration where the ratio of the normalized measures equaled one, the drug would be at the same effective concentration as 60 μM ACh.
Electrophysiology: New compounds were assayed for activity with the α7 nAChR expressed in Xenopus oocytes using two-electrode voltage clamping as previously described in Papke et al., (2014) J. Pharmacol. Experimental Therap. 350: 665-680, incorporated herein by reference in its entirety, and compared to responses evoked by 60 μM Ach (FIGS. 5 and 6). The compound set was assayed at a concentration of 30 μM to provide a standard comparison benchmark.
Based on earlier experience this concentration is high enough to provide an observable response and low enough to avoid possible complications such as channel block. The net-charge response for each compound application is reported relative to those for ACh control applications. Data were expressed as the mean ±S.E.M. from at least four oocytes for each experiment and were plotted by Kaleidagraph (Abelbeck Software, Reading, Pa.).

[2] = test system: LPS-stimulated secretion of TNF-α in rat cultured microglia; settings: cited from earlier work
[3] = test system: mouse pain models; settings: formalin- and acetic acid-induced nociceptive conditions, chronic constrictive nerve injury; cited from earlier work
[4] = biological target: α3β4 nAChR (Homo sapiens, UniProt P30926+P32297); experiment: Receptor subtype specificity: α3β4 nAChR activation / antagonism; type: cell-based; settings: 100 μM
[5] = biological target: α4β2 nAChR (Homo sapiens, UniProt P17787+P43681); experiment: Receptor subtype specificity: α4β2 nAChR activation / antagonism; type: cell-based; settings: for antagonist activity at α4β2: 100 μM
Chain of α4β2 nAChR (P43681 29-627 limits assumed): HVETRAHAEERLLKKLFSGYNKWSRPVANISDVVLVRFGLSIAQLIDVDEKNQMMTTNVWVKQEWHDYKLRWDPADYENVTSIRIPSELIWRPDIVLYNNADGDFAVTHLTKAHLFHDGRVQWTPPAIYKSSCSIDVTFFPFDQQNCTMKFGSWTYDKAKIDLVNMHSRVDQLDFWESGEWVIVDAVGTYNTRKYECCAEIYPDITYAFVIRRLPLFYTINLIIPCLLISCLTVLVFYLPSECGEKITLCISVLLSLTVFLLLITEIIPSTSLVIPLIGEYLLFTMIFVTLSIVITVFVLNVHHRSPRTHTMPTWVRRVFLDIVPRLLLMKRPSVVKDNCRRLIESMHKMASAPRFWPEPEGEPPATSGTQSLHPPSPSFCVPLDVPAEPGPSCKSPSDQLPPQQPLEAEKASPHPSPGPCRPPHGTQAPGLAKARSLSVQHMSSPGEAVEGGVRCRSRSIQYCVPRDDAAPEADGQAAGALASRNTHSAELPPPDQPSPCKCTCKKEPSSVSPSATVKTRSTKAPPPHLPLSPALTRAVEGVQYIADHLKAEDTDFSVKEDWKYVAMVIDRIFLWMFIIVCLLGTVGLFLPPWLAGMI
Chain of α4β2 nAChR (P17787 26-502): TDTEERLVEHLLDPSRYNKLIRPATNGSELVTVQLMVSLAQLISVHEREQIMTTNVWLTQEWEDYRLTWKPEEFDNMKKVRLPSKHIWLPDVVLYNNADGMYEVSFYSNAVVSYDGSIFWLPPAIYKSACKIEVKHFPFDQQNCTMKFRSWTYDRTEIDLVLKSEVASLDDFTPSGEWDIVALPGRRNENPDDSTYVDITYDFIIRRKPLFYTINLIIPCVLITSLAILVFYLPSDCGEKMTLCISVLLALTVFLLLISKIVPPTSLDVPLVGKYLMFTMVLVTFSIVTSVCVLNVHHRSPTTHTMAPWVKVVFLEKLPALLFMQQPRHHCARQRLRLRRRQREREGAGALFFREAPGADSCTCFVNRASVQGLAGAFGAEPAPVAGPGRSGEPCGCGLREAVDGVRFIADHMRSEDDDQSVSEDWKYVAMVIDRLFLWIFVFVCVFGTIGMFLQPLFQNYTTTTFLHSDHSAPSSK

T1 sequence (P36544 23-502): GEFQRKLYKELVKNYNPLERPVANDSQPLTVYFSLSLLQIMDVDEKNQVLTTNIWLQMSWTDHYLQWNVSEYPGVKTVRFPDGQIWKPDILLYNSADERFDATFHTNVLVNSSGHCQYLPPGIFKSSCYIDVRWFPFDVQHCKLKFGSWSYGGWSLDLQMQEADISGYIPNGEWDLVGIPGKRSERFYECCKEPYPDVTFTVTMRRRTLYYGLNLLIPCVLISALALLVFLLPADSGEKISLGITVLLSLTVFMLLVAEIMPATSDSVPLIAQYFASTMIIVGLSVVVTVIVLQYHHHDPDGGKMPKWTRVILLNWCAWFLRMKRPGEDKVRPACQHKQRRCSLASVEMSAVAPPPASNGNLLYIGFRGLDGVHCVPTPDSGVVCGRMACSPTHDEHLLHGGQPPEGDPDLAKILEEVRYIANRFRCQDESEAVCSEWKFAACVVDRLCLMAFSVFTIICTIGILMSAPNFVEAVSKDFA
Chain of α3β4 nAChR (P32297 32-505): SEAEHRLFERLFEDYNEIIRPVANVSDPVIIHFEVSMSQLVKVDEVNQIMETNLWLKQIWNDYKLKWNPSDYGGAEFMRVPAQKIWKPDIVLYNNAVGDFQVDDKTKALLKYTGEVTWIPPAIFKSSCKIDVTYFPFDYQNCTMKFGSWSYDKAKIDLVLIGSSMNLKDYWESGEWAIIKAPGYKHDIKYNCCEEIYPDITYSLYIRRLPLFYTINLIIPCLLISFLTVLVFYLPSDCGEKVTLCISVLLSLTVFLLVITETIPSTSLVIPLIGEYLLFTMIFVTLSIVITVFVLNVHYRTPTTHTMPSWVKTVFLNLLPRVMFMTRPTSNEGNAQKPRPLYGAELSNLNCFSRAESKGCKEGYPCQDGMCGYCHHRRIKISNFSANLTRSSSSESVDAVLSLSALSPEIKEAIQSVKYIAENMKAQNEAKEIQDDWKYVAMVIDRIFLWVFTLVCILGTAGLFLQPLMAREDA
Chain of α3β4 nAChR (P30926 22-498): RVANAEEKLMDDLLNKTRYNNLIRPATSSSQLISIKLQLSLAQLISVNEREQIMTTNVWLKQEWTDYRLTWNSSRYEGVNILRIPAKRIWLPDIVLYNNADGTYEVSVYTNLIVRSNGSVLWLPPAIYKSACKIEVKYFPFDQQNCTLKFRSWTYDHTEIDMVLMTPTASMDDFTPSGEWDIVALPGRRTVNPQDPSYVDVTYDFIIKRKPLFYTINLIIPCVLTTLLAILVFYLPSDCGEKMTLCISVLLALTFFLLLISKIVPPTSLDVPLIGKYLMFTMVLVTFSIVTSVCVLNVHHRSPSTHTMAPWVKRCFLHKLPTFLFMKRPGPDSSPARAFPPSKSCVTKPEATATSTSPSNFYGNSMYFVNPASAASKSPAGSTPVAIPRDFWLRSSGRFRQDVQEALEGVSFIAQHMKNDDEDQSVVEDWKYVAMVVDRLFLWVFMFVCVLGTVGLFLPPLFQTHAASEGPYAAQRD

Row | SMILES | Potentiated response [1] | Relative response [1] | melting point [°C] | functional classification at α7 nAChR [1] | suppression of LPS-stimulated secretion of TNF-α [2] | antinociceptive activity [3] | antagonism of α3β4 [4] | PAM-dependent response compared to the parent unsubstituted diEPP ([1]; co-application with PNU-120596) [%] | PAM-dependent currents relative to ACh ([1]; co-application with PNU-120596, meta-substituted series) [fold] | activation / partial agonism of α4β2 nAChR [5] | antagonist activity at α4β2 [5]
1 | CCN1CCN(c2ccc(C(F)(F)F)cc2)CC1 [Compound 1n, 1-ethyl-4-(4-(trifluoromethyl)phenyl)piperazine] | 1.4 ± 0. | 0.000 ± 0.004 | 56.3 to 56.5 | – | – | – | – | – | – | – | –
2 | CC[N+]1(CC)CCN(c2ccc(C)cc2)CC1.[I-] [Compound 2a, 1,1-diethyl-4-p-tolylpiperazin-1-ium iodide] | 3.6 ± 2.0 | 0.011 ± 0.003 | 147.4 to 148.8 | candidate silent agonists | – | – | – | – | – | – | –
3 | CCN1CCN(c2ccc(F)cc2)CC1 [Compound 1r, 1-ethyl-4-(4-fluorophenyl)piperazine] | 0.0 ± 0.0 | 0.000 ± 0.003 | 30 to 30.5 | – | – | – | – | – | – | – | –
4 | O=C(c1ccc(-c2cccc(C(F)(F)F)c2)o1)N1CCN2CCC1CC2 [NS-6740, 1,4-diazabicyclo[3.2.2]nonan-4-yl(5-(3-(trifluoromethyl)phenyl)furan-2-yl) methanone] | – | – | – | – | more efficacious than some agonists (including choline) | showed antinoceptive activity | – | – | – | – | –
5 | CC[N+]1(CC)CCN(c2cccc(OC)c2)CC1.[I-] [Compound 2g, 1,1-diethyl-4-(3-methoxyphenyl)piperazin-1-ium iodide] | 0.6 ± 0.2 | 0.011 ± 0.011 | – | no significant activity as either partial agonists or as silent agonists | – | – | significant antagonism | 50 | – | – | –
6 | CC[N+]1(CC)CCN(c2cccc(C)c2)CC1.[I-] [Compound 2d, 1,1-diethyl-4-m-tolylpiperazin-1-ium iodide] | 0.2 ± 0.1 | 0.001 ± 0.000 | 144 to 145 | no significant activity as either partial agonists or as silent agonists | – | – | – | – | – | – | –
7 | CC[N+]1(CC)CCN(c2cccc(Br)c2)CC1.[I-] [Compound 2p, 4-(3-bromophenyl)-1,1-diethylpiperazin-1-ium iodide] | 10.0±1.7 | 0.040 ± 0.006 | – | candidate silent agonists | – | – | – | – | 9.98 | neither to be partial agonists | nor to have significant antagonist activity
8 | CC[N+]1(CC)CCN(c2ccc(C(F)(F)F)cc2)CC1.[I-] [Compound 2n, 1,1-diethyl-4-(4-(trifluoromethyl)phenyl)piperazin-1-ium iodide] | 61.8 ± 7.7 | 0.032 ± 0.003 | – | candidate silent agonists | – | – | – | – | – | neither to be partial agonists | nor to have significant antagonist activity
